Source: US4193913A, “Thermoplastic vinyl chloride polymers containing monoalkyl-tin-stabilizers” (priority 1978, dated 1980)

Tests used:
rats [1] = assay: Acute oral LD50 in rats; assay type: in vivo, rat; conditions: for acute oral LD50: rats of both sexes, oral intubation
Method: Compound III was weighed into an Erlenmeyer flask. It was diluted at 30 and 50% with carboxymethylcellulose and administered by oral intubation.
The compound was tested on 40 rats (20 males/20 females). They were 6 to 7 weeks old and weighed 160 to 180 g.
The males and females were segregated and housed in Macrolon cages in groups of 5 in a room kept at a constant temperature of 22 ±1° C. and a relative humidity of approximately 50%. They received water and food ad libitum. The rats were starved during one night before starting the treatment. The doses were 3170, 4640, 6000 and 10,000 mg/kg body weight.

rats [2] = assay: No effect level, 90-day dietary administration to rats with 28-day recovery; assay type: in vivo, rat; conditions: for no effect level (dietary concentration): diet
Method: Compound III was administered in the diet to groups of 30 (groups 2 and 3) and 40 (group 4) rats at concentrations of 300, 1000 and 3000 ppm respectively (equivalent to an average daily intake of 19, 62 and 179 mg/kg body weight), for not less than 90 days. Forty rats in the control group received the same diet but without the addition of Compound III.
Ten rats (5+5) from each of groups 1 (control) and 4 (3000 ppm) were retained without treatment for 28 days after the end of the main study, as a recovery experiment.

[3] = Heat stability test on laboratory mill (Example 11); conditions: 190° C., 1.0 part stabiliser per 100 parts suspension PVC, 0.5 part montan wax, 1.0 part monoglycerol ester
Method: (§1) A dry blend, consisting of 100 parts of suspension PVC, 0.5 part of montan wax, 1.0 part of monoglycerol ester and 1.0 part of organo-tin stabiliser according to the table below, is milled on a laboratory mill at 190° C. Every 5 minutes, an 0.3 mm thick piece of film is taken off to asist the discolouration.

[4] = Milling test, impact-modified suspension PVC (Example 15); conditions: 190° C.
Method: Experiment 1: A dry blend, consisting of 100 parts by weight of suspension PVC (K-value 58), 1.0 part by weight of wax ester and 0.2 part by weight of montan wax as the lubricant, 1.0 part by weight of acrylic resin as a processing aid, 12.0 parts by weight of MBS modifying resin, as an additive to improve impact strength, and 0.8 part by weight of methyl-tin tris-(myristyl-thioglycollate), corresponding to 0.09 part of tin, is milled on a laboratory mill at 190° C. Every 5 minutes, an 0.3 mm thick piece of film is removed to assess the discolouration.
Experiment 2: The above experiment is repeated with 1.1 parts by weight of the same stabiliser, corresponding to 0.13 part of tin. The very slight yellow discolouration in this case occurs after 20 minutes, and the light yellow discolouration after 25 minutes.

[5] = Heat stability, bulk-polymerised PVC at 0.15 g Sn/100 g PVC (Example 12); conditions: 0.3 part montan wax, 0.15 g of Sn/100 g of PVC
Method: as §1
Moulding materials consisting of 100 parts of bulk-polymerised PVC and 0.3 part of montan wax together with the organo-tin stabilisers according to the table which follows are examined for their heat stability, analogously to Example 11. The amounts of stabiliser are calculated to correspond to the use of 0.15 g of Sn/100 g of PVC.

[6] = Milling test, plasticised suspension PVC (Example 14); conditions: 180° C., 0.5 part by weight stabiliser
Method: A mixture of 100 parts by weight of suspension PVC (K-value 71), 40 parts by weight of di-2-ethylhexyl phthalate, 0.3 part by weight of montan wax and 0.5 part by weight of octyl-tin tris-cetyl-thioglycollate, corresponding to 0.05 g of Sn/100 g of PVC, is milled on a laboratory mill at 180° C. until yellowing beings to occur.

[7] = Milling test, vinyl chloride/vinyl acetate copolymer (Example 13); conditions: 20 minutes at 180° C., 1.35 g stabiliser, 0.13 g of tin per 100 parts of copolymer
Text: 100 parts of a vinyl chloride/vinyl acetate copolymer (vinyl acetate content 10%, K-value 60 to 61) are premixed with 0.5 part of montan wax, 1.0 part of monoglycerol ester and an organo-tin stabiliser of the formula C8 H17 Sn(SCH2 COO-n-C16 H33)3. The amount of organo-tin stabiliser (1.35 g) is so chosen that 0.13 g of tin are present per 100 parts of copolymer.

[8] = tin content of 49%; known stabiliser; cited from earlier work
[9] = 300, 1000 and 3000 ppm in diet, not less than 90 days
[10] = 0.8 part by weight stabiliser, 0.09 part of tin (Experiment 1)
[11] = 1.1 parts by weight stabiliser, 0.13 part of tin (Experiment 2)

CCCCCCC[CH2][Sn]([CH2]CCCCCCC)([S]CC(=O)OCCCCCC(C)C)[S]CC(=O)OCCCCCC(C)C [Compound I, (n-C8 H17)2 Sn(SCH2 COO-i-C8 H17)2, reference compound]
acute oral LD50 (rats [1]; 14 days): 2000 mg/kg
no effect level (dietary concentration) (rats [2]; rats, not less than 90 days): 25 ppm

CCCCCCC[CH2][Sn]([S]CC(=O)OCCCCCC(C)C)([S]CC(=O)OCCCCCC(C)C)[S]CC(=O)OCCCCCC(C)C [Compound II, n-C8 H17 Sn(SCH2 COO-i-C8 H17)3, reference compound]
acute oral LD50 (rats [1]; 14 days): 5000 mg/kg
no effect level (dietary concentration) (rats [2]; rats, not less than 90 days): 500 ppm

CCCCCCCCCCCCCCOC(=O)C[S][Sn]([CH2]CCCCCCC)([S]CC(=O)OCCCCCCCCCCCCCC)[S]CC(=O)OCCCCCCCCCCCCCC [Compound III, n-C8 H17 Sn(SCH2 COO-n-C14 H29)3]
mortality, acute test (rats [1]; 3170, 4640, 6000 and 10,000 mg/kg body weight, 14 days): No animal died
autopsy findings, acute test (rats [1]; killed animals, 3170 to 10,000 mg/kg): no substance related gross organ changes were seen
acute toxicity grading (rats [1]; rat, oral): slight acute toxicity
acute oral LD50 (rats [1]; 14 days): greater than 10,000 mg/kg
clinical symptoms, 90-day diet study (rats [2]; [9]): no clinical symptoms were recorded
deaths, 90-day diet study (rats [2]; [9]): No deaths occured
body weight gains, food consumption, laboratory parameters, organ weight data after recovery (rats [2]; group 4 (3000 ppm) versus control, 28 days recovery): no significant difference
histopathological changes after recovery (rats [2]; group 4 (3000 ppm), 28 days recovery): No histopathological changes were seen
body weight gain (rats [2]; male rats, 3000 ppm, following day 14, versus untreated controls): gained less body weight than untreated controls
body weights at termination of treatment (rats [2]; male rats, 3000 ppm, versus untreated control animals): slightly below those from untreated control animals
no effect level (dietary concentration) (rats [2]; rats, not less than 90 days): 3000 ppm
no effect level as average daily intake (rats [2]; rats, equivalent to 3000 ppm in diet, 129600 min): 179 mg/kg body weight
feed consumption (rats [2]; top dose rats (3000 ppm)): decreased feed consumption

CCCCCCCCCCCCCCOC(=O)C[S][Sn]([CH3])([S]CC(=O)OCCCCCCCCCCCCCC)[S]CC(=O)OCCCCCCCCCCCCCC [Example 1, methyl-tin tris-(myristyl-thioglycollate)]
Heat stability of the moulding material (time to recognisable colour change to light brown-yellow) [3]: 25 min
milling time to reach a light yellow discolouration [4, 10]: 20 min
milling time to reach a very slight yellow discolouration [4, 10]: 15 min
milling time to light yellow discolouration [4, 11]: 25 min
milling time to very slight yellow discolouration [4, 11]: 20 min

CCCCCCCCCCCCOC(=O)C[S][Sn]([CH2]CCC)([S]CC(=O)OCCCCCCCCCCCC)[S]CC(=O)OCCCCCCCCCCCC [Example 2, butyl-tin tris-(lauryl-thioglycollate)]
Time in minutes for which the films remain colourless [5]: 25 min

CCCCCCCCCCCCCCCCOC(=O)C[S][Sn]([CH2]CCC)([S]CC(=O)OCCCCCCCCCCCCCCCC)[S]CC(=O)OCCCCCCCCCCCCCCCC [Example 3, butyl-tin tris-(cetyl-thioglycollate)]
Time in minutes for which the films remain colourless [5]: 35 min

CCC[CH2][Sn]([S]CC(=O)OCCCCCCCCCCCCCCCC(C)C)([S]CC(=O)OCCCCCCCCCCCCCCCC(C)C)[S]CC(=O)OCCCCCCCCCCCCCCCC(C)C [Example 8, butyl-tin tris-(i-octadecyl thioglycollate)]
Time in minutes for which the films remain colourless [5]: 30 min

CCCCCCCCCCCCCCCCOC(=O)C[S][Sn]([CH2]CCCCCCC)([S]CC(=O)OCCCCCCCCCCCCCCCC)[S]CC(=O)OCCCCCCCCCCCCCCCC [Example 10, octyl-tin tris-(cetyl-thioglycollate)]
time until a very slight yellowing is just detectable ([6]; 0.05 g of Sn/100 g of PVC, 40 parts di-2-ethylhexyl phthalate): 74 min
appearance of the mill hide after 105 minutes ([6]; 105 minutes): slightly yellow
Heat stability of the moulding material (time to recognisable colour change to light brown-yellow) [3]: 25 min
yellowing detectable after milling [7]: only very slight yellowing is detectable

butyl-tin tris(alfyl(12)-thioglycollate) [Example 4]
Time in minutes for which the films remain colourless [5]: 30 min

butyl:tin tris(alfyl(14)-thioglycollate) [Example 5]
Heat stability of the moulding material (time to recognisable colour change to light brown-yellow) [3]: 25 min

butylthiostannonic acid
stabiliser effect relative to tin content [8]: relatively slight effect

octyl-tin tris(alfyl(14)-thioglycollate) [Example 9]
Time in minutes for which the films remain colourless [5]: 35 min
